Test results published in ChEMBL document CHEMBL1153371, “Antiseizure activity of novel gamma-aminobutyric acid (A) receptor subtype-selective benzodiazepine analogues in mice and rat models” (J Med Chem, 2009).
Active and inactive are the calls of the source. The rule behind the calls is not given here.

Assays:
Mus musculus [1] = experiment: Anticonvulsant activity in ip dosed mouse assessed as protection against maximal electroshock-induced seizure; type: functional
Mus musculus [2] = experiment: Anticonvulsant activity in ip dosed mouse assessed as protection against subcutaneous metrazole-induced seizure; type: functional
Rattus norvegicus [3] = experiment: Anticonvulsant activity in po dosed rat assessed as protection against maximal electroshock-induced seizure; type: functional
Rattus norvegicus [4] = experiment: Anticonvulsant activity in po dosed rat assessed as protection against subcutaneous metrazole-induced seizure; type: functional
[5] = molecular target: GABA-A receptor; alpha-1/beta-3/gamma-2 (Homo sapiens) (UniProt P14867+P18507+P28472); experiment: Activity at GABAA alpha-1-beta-3-gamma-2 receptor expressed in oocytes assessed as stimulation of GABA-induced current at 1 uM relative to control; type: cell-based; conditions: Oocyte
[6] = molecular target: GABA-A receptor; alpha-2/beta-3/gamma-2 (Homo sapiens) (UniProt P18507+P28472+P47869); experiment: Activity at GABAA alpha-2-beta-3-gamma-2 receptor expressed in oocytes assessed as stimulation of GABA-induced current at 1 uM relative to control; type: cell-based; conditions: Oocyte
[7] = molecular target: T1, Gamma-aminobutyric acid receptor subunit alpha-3 (Homo sapiens) (UniProt P34903); experiment: Activity at GABAA alpha-3-beta-3-gamma-2 receptor expressed in oocytes assessed as stimulation of GABA-induced current at 1 uM relative to control; type: cell-based; conditions: Oocyte
T1 sequence (whole entry): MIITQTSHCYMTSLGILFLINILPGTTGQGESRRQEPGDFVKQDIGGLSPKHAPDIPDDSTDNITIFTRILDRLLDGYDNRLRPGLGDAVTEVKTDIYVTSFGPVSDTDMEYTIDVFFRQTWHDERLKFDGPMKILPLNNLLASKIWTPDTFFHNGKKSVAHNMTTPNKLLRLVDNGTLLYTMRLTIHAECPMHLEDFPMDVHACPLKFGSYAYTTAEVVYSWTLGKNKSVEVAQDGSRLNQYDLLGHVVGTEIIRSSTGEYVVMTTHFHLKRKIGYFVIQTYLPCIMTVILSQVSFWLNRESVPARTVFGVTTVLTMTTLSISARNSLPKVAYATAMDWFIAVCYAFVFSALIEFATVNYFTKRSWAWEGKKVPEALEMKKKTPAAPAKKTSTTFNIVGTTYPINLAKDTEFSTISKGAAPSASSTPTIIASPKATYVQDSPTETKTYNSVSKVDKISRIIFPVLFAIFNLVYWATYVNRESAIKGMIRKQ

[8] = molecular target: GABA-A receptor; alpha-5/beta-3/gamma-2 (Homo sapiens) (UniProt P18507+P28472+P31644); experiment: Activity at GABAA alpha-5-beta-3-gamma-2 receptor expressed in oocytes assessed as stimulation of GABA-induced current at 1 uM relative to control; type: cell-based; conditions: Oocyte
[9] = Toxicity in po dosed rat assessed as minimal muscular or neurological impairment by rotarod paradigm test; type: organism-based; conditions: in vivo
[10] = Therapeutic index, ratio of TD50 for ip dosed mouse to ED50 for protection against subcutaneous metrazole-induced seizure in ip dosed mouse; type: organism-based; conditions: in vivo, read-out: Ratio TD50/ED50
[11] = Therapeutic index, ratio of TD50 for po dosed rat to ED50 for protection against subcutaneous metrazole-induced seizure in po dosed rat; type: organism-based; conditions: in vivo, read-out: Ratio TD50/ED50
[12] = Toxicity in ip dosed mouse assessed as minimal muscular or neurological impairment by rotarod paradigm test; type: organism-based; conditions: in vivo
Rattus norvegicus [13] = experiment: Toxicity in rat assessed as motor impairment at 50 mg/kg, po after 0.5 hrs by rotarod paradigm test; type: organism-based; parameters: dose 50 mg/kg, route oral; conditions: in vivo
Rattus norvegicus [14] = experiment: Toxicity in rat assessed as motor impairment at 50 mg/kg, po after 1 hr by rotarod paradigm test; type: organism-based; parameters: dose 50 mg/kg, route oral; conditions: in vivo
Rattus norvegicus [15] = experiment: Anticonvulsant activity in rat assessed as protection against subcutaneous metrazole-induced seizure at 50 mg/kg, ip after 0.5 hrs; type: functional
Rattus norvegicus [16] = experiment: Anticonvulsant activity in rat assessed as protection against subcutaneous metrazole-induced seizure at 50 mg/kg, ip after 4 hrs; type: functional
Rattus norvegicus [17] = experiment: Toxicity in rat assessed as motor impairment at 50 mg/kg, ip after 0.5 hrs by rotarod paradigm test; type: organism-based; parameters: dose 50 mg/kg, route intraperitoneal; conditions: in vivo
Rattus norvegicus [18] = experiment: Toxicity in rat assessed as motor impairment at 50 mg/kg, ip after 4 hrs by rotarod paradigm test; type: organism-based; parameters: dose 50 mg/kg, route intraperitoneal; conditions: in vivo
Rattus norvegicus [19] = experiment: Anticonvulsant activity in rat assessed as protection against maximal electroshock-induced seizure at 30 mg/kg, ip and po after 0.5 hrs; type: functional, organism-based; parameters: dose 30 mg/kg
Rattus norvegicus [20] = experiment: Anticonvulsant activity in rat assessed as protection against subcutaneous metrazole-induced seizure at 50 mg/kg, po after 4 hrs; type: functional, organism-based; parameters: dose 50 mg/kg
Rattus norvegicus [21] = experiment: Anticonvulsant activity in rat assessed as blockade against kindle motor-induced seizure at 50 mg/kg, ip by hippocampal kindling screen test; type: functional, organism-based; parameters: dose 50 mg/kg; conditions: Hippocampus
Rattus norvegicus [22] = experiment: Anticonvulsant activity against kindle motor-induced seizure in rat assessed as after discharge duration at 50 mg/kg, ip by hippocampal kindling screen test; type: functional, Hippocampus; conditions: route intraperitoneal
Rattus norvegicus [23] = experiment: Toxicity in rat assessed as motor impairment at 30 mg/kg, ip after 1 hr by rotarod paradigm test; type: organism-based; parameters: dose 30 mg/kg, route intraperitoneal; conditions: in vivo
Mus musculus [24] = experiment: Anticonvulsant activity in mouse assessed as protection against maximal electroshock-induced seizure at 100 mg/kg, ip after 0.5 hrs; type: functional, organism-based; parameters: dose 100 mg/kg
Mus musculus [25] = experiment: Anticonvulsant activity in mouse assessed as protection against maximal electroshock-induced seizure at 100 mg/kg, ip after 4 hrs; type: functional, organism-based; parameters: dose 100 mg/kg
Mus musculus [26] = experiment: Anticonvulsant activity in mouse assessed as protection against subcutaneous metrazole-induced seizure at 100 mg/kg, ip after 4 hrs; type: functional, organism-based; parameters: dose 100 mg/kg
Mus musculus [27] = experiment: Toxicity in mouse assessed as motor impairment at 100 mg/kg, ip after 0.5 hrs by rotarod paradigm test; type: organism-based; parameters: dose 100 mg/kg, route intraperitoneal; conditions: in vivo
Mus musculus [28] = experiment: Toxicity in mouse assessed as motor impairment at 100 mg/kg, ip after 4 hrs by rotarod paradigm test; type: organism-based; parameters: dose 100 mg/kg, route intraperitoneal; conditions: in vivo
Rattus norvegicus [29] = experiment: Anticonvulsant activity in rat assessed as protection against maximal electroshock-induced seizure at 30 mg/kg, ip and po after 4 hrs; type: functional, organism-based; parameters: dose 30 mg/kg
Rattus norvegicus [30] = experiment: Anticonvulsant activity in rat assessed as protection against subcutaneous metrazole-induced seizure at 50 mg/kg, po after 0.5 hrs; type: functional
Rattus norvegicus [31] = experiment: Toxicity in rat assessed as motor impairment at 50 mg/kg, ip after 1 hr by rotarod paradigm test; type: organism-based; parameters: dose 50 mg/kg, route intraperitoneal; conditions: in vivo
Rattus norvegicus [32] = experiment: Toxicity in rat assessed as sedative effect at 500 mg/kg, po; type: organism-based; parameters: dose 500 mg/kg, route oral; conditions: in vivo
Rattus norvegicus [33] = experiment: Anticonvulsant activity in rat assessed as blockade against kindle motor-induced seizure at 100 mg/kg, ip by hippocampal kindling screen test; type: functional, organism-based; parameters: dose 100 mg/kg; conditions: Hippocampus
Rattus norvegicus [34] = experiment: Anticonvulsant activity against kindle motor-induced seizure in rat assessed as after discharge duration at 100 mg/kg, ip by hippocampal kindling screen test; type: functional, Hippocampus; conditions: route intraperitoneal
Rattus norvegicus [35] = experiment: Toxicity in rat assessed as motor impairment at 50 mg/kg, po after 4 hrs by rotarod paradigm test; type: organism-based; parameters: dose 50 mg/kg, route oral; conditions: in vivo
Rattus norvegicus [36] = experiment: Anticonvulsant activity in rat assessed as protection against subcutaneous metrazole-induced seizure at 15 mg/kg, po after 4 hrs; type: functional
Rattus norvegicus [37] = experiment: Anticonvulsant activity in rat assessed as blockade against kindle motor-induced seizure at 10 mg/kg, ip by hippocampal kindling screen test; type: functional, organism-based; parameters: dose 10 mg/kg; conditions: Hippocampus
Rattus norvegicus [38] = experiment: Anticonvulsant activity against kindle motor-induced seizure in rat assessed as after discharge duration at 10 mg/kg, ip by hippocampal kindling screen test; type: functional, Hippocampus; conditions: route intraperitoneal
Rattus norvegicus [39] = experiment: Toxicity in rat assessed as motor impairment at 3 mg/kg, ip after 1 hr by rotarod paradigm test; type: organism-based; parameters: dose 3 mg/kg, route intraperitoneal; conditions: in vivo

SMILES | ED50 (Mus musculus [1]) [mg/kg] | ED50 (Mus musculus [2]) [mg/kg] | ED50 (Rattus norvegicus [3]) [mg/kg] | ED50 (Rattus norvegicus [4]) [mg/kg] | Activity [5] [%] | Activity [6] [%] | Activity [7] [%] | Activity [8] [%] | TD50 [9] [mg/kg] | selectivity ratio [10] | selectivity ratio [11] | TD50 [12] [mg/kg] | Activity (Rattus norvegicus [17]) | other results
NC(=O)N1c2ccccc2C=Cc2ccccc21 [CARBAMAZEPINE] | 7.81 | > 50 | 5.35 | > 250 | – | – | – | – | – | – | – | – | – | –
CN1C(=O)CN=C(c2ccccc2)c2cc(Cl)ccc21 | – | – | – | – | 345 | 508 | 776 | 420 | – | – | – | – | – | –
O=C1NC(=O)C(c2ccccc2)(c2ccccc2)N1 [PHENYTOIN] | 5.64 | > 50 | 28.1 | > 500 | – | – | – | – | > 1000 | < 0.82 | 2 | – | – | –
O=C1CN=C(c2ccccc2Cl)c2cc([N+](=O)[O-])ccc2N1 [CLONAZEPAM] | 25.6 | 0.02 | 7.86 | 0.61 | – | – | – | – | 2.38 | 13 | 3.9 | 0.26 | – | –
CCOC(=O)c1ncn2c1CN=C(c1ccccc1F)c1cc(I)ccc1-2 | – | – | – | – | – | – | – | – | – | – | – | – | Non-toxic | Activity (Rattus norvegicus [13]): Non-toxic; Activity (Rattus norvegicus [14]): Non-toxic; Activity (Rattus norvegicus [15]): inactive; Activity (Rattus norvegicus [16]): inactive; Activity (Rattus norvegicus [18]): Non-toxic
C#Cc1ccc2c(c1)C(c1ccccc1F)=NCc1c(C(=O)OCC)ncn1-2 | > 200 | 8.87 | > 250 | 23.7 | 248 | 410 | 596 | 246 | > 500 | > 44 | > 21.1 | > 400 | Non-toxic | Activity (Rattus norvegicus [19]): inactive; Activity (Rattus norvegicus [20]): Active; Activity (Rattus norvegicus [18]): Non-toxic; Activity (Rattus norvegicus [21]): Active; Activity (Rattus norvegicus [22]): 38 s; Activity (Rattus norvegicus [23]): Non-toxic
C#Cc1ccc2c(c1)C(c1ccccn1)=NCc1c(C(=O)OCC)ncn1-2 | > 300 | 16.3 | > 250 | 98.5 | 167 | 313 | 346 | 174 | > 500 | > 30.2 | > 5 | > 500 | Non-toxic | Activity (Mus musculus [24]): inactive; Activity (Mus musculus [25]): inactive; Activity (Mus musculus [26]): inactive; Activity (Mus musculus [27]): Non-toxic; Activity (Mus musculus [28]): Non-toxic; Activity (Rattus norvegicus [29]): inactive; Activity (Rattus norvegicus [30]): 100%; Activity (Rattus norvegicus [15]): 88%; Activity (Rattus norvegicus [16]): 63%; Activity (Rattus norvegicus [31]): Non-toxic; Activity (Rattus norvegicus [32]): Non-toxic; Activity (Rattus norvegicus [33]): Active; Activity (Rattus norvegicus [34]): 59 s; Activity (Rattus norvegicus [23]): Non-toxic
C#Cc1ccc2c(c1)C(c1ccccc1Cl)=NCc1nnc(C)n1-2 | > 6 | 1.03 | > 150 | 1.58 | – | – | – | – | – | 2.8 | > 105 | – | – | Activity (Rattus norvegicus [19]): inactive; Activity (Rattus norvegicus [29]): inactive; Activity (Rattus norvegicus [30]): Active; Activity (Rattus norvegicus [13]): Non-toxic; Activity (Rattus norvegicus [35]): Non-toxic; Activity (Rattus norvegicus [36]): 50%; Activity (Rattus norvegicus [37]): Active; Activity (Rattus norvegicus [38]): 92 s; Activity (Rattus norvegicus [39]): Non-toxic
